This assay addresses T1, hTAS1R1 H71S/rTAS1R3 (Homo sapiens, UniProt Q7RTX1, H71S).
T1 construct: UniProtKB number Q7RTX1–1); expressed in transfected cells; host or cells: HEK293T/17 (ATCC CRL-11268)
T1 sequence (Q7RTX1 21-841 H71S): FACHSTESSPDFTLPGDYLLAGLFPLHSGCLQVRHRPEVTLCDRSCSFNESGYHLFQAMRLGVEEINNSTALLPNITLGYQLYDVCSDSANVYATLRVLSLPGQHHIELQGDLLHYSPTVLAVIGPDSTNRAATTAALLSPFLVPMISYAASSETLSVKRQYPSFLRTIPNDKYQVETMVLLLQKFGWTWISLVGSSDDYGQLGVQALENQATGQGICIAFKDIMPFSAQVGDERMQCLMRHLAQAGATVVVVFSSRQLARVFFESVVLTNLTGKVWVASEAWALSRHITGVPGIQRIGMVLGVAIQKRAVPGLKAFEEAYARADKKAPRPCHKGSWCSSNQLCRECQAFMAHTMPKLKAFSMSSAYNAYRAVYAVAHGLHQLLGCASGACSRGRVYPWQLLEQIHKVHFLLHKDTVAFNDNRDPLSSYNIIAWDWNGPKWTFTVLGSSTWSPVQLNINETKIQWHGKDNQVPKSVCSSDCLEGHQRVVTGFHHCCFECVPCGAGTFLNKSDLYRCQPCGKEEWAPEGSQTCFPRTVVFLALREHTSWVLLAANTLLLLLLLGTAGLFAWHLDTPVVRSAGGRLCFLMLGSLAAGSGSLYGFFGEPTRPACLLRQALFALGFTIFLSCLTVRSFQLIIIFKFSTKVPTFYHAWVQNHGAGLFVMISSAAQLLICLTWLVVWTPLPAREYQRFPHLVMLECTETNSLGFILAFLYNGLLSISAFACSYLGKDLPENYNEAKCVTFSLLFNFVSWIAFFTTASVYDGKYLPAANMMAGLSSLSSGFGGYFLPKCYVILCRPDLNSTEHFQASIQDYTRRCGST
T1 sequence (Q923K1 21-858 partner): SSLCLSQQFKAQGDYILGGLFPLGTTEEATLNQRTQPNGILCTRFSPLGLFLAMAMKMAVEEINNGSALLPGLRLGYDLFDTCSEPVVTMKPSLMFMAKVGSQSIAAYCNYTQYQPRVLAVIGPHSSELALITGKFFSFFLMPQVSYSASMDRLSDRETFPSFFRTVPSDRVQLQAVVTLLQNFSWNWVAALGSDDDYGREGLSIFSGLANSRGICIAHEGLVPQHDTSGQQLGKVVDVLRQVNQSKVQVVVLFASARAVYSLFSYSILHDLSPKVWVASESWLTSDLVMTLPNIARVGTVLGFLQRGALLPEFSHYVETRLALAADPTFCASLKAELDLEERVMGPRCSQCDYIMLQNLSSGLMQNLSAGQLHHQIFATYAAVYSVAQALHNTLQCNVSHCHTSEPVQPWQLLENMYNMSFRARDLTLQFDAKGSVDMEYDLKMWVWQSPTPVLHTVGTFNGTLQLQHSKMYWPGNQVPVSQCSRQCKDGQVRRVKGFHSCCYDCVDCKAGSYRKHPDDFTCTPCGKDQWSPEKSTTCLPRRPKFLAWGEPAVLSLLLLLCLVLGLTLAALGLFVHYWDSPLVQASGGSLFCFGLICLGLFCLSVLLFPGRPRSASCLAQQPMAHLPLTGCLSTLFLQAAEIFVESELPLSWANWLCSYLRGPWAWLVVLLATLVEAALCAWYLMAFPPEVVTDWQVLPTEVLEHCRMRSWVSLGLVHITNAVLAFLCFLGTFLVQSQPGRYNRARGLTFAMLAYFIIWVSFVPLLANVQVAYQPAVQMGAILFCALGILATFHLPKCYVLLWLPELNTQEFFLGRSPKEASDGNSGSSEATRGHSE
Put plainly: Calcium assay, hTAS1R1 mutant co-expressed with rTAS1R3. The assay is classed as cell-based, rat. To be noted: for response to the agonist alone, vs WT: H71S. An excerpt: Chimeric Gα proteins, such as Gα16Gust44, Gα16Gi3 or Gα15i2, are widely used in the functional expression of TAS1R receptors ([Backes et al., 2015]; [Suess et al., 2015]; [Toda et al., 2021], [Toda et al., 2013], [Toda et al., 2018]; [Zhang et al., 2008]). Chimeric Gα15i2 (([Toda et al., 2013]), Supplementary data) was generated by replacing the last five residues of the C-terminal tail of rat Gα15i2 (EINLL) (UniProt number G3V6N8; https://www.uniprot.org/uniprot/) with the counterpart sequence from human GNAI2 (DCGLF) (UniProt number P04899-1) and cloning into the pcDNA3.1/Hygro vector (Invitrogen, Thermo Fisher Scientific, Illkirch, France) between the HindIII and NotI restriction sites, resulting in the plasmid pcDNA3.1-Gα15i2. Chimeric Gα16Gust44 construct have already been reported ([Raliou et al., 2011]). Briefly, Gα16Gust44 was generated by replacing the C-terminal of Gα16 with the C-terminal 44 residues of gustducin. As previously described, hTAS1R1 was amplified from human fungiform papillae cDNA and cloned and inserted into pcDNA3 (Invitrogen), generating pcDNA3-TAS1R1-WT (wild-type) ([Raliou et al., 2011]). […] The cDNA coding region of rTAS1R3 was synthesized with optimized-codon usage for human expression (Genewiz) and was cloned and inserted into the mammalian pcDNA4/myc-HisA (Invitrogen) expression vector between the EcoRI and NotI restriction sites, resulting in the plasmid pcDNA4-rTAS1R3. […] The sequence integrity of all the plasmid constructs was verified via automated DNA sequencing (Genewiz).
The hTAS1R1 mutants were co-expressed with the rTAS1R3 subunit in HEK293 cells. […] As a control, the functionality of the mutated receptors was checked after stimulation with S807 (Fig. S8), which interacts with TAS1R1-TMD ([Zhang et al., 2008]).

The values that follow come from article PMC12615753, “Glutathione as a taste modulator: molecular mechanisms of interaction with umami and sweet taste receptors” (Food Chemistry: Molecular Sciences, 2025).

Entries after “also recorded” stand apart in the source; their conditions may differ.

One may read the EC50 as the concentration giving half of the maximal effect.

On to `N[C@@H](CCC(=O)N[C@@H](CS)C(=O)NCC(=O)O)C(=O)O` [GSH, γ-L-glutamyl-L-cysteinyl-glycine], for which the EC50 is more than 30 mM and the “response to the agonist alone, vs WT” value is listed as “fully abolished; also recorded: completely abolished”.
Consider `N[C@@H](CCC(=O)O)C(=O)O` [L-Glu, L-glutamic acid, reference compound], for which the “response to the agonist alone, vs WT” value is on record as “completely suppressed; also recorded: completely abolished”.
Same read-out and setting: in the case of `CCCC(CCC)NC(=O)c1ccc2c(c1)OCO2` [S807, N-(heptan-4-yl)benzo[d][1,3]dioxole-5-carboxamide, reference compound] it was “unaffected”.
